In ChEMBL document CHEMBL3885881, “DrugMatrix”:

Species: Rattus norvegicus
Assay: DrugMatrix - Regimen: Daily Repeat
Assay type: toxicity, organism-based, Sprague-Dawley
Parameters: regimen Daily Repeat, gender Male, age 6-8 weeks
Settings: in vivo, po, route oral GAVAGE, vehicle 100 % WATER; for ABSOLUTE BASOPHIL / ABSOLUTE EOSINOPHIL / ABSOLUTE LYMPHOCYTE / ABSOLUTE MONOCYTE / ABSOLUTE SEGMENTED NEUTROPHIL / BASOPHIL / EOSINOPHIL / ERYTHROCYTE COUNT / HEMATOCRIT / HEMOGLOBIN / LEUKOCYTE COUNT / LYMPHOCYTE / MEAN CORPUSCULAR HEMOGLOBIN / MEAN CORPUSCULAR HEMOGLOBIN CONCENTRATION / MEAN CORPUSCULAR VOLUME / MONOCYTE / NEUTROPHIL / NUCLEATED RED BLOOD CELLS / PLATELET COUNT: tissue Blood; for ALANINE AMINOTRANSFERASE / ALBUMIN / ALKALINE PHOSPHATASE / ASPARTATE AMINOTRANSFERASE / BLOOD UREA NITROGEN / CARBON DIOXIDE / CHLORIDE / CHOLESTEROL / CREATINE PHOSPHOKINASE / CREATININE / GLUCOSE / LACTATE DEHYDROGENASE / LIPASE / PHOSPHORUS / POTASSIUM / SODIUM / TOTAL BILIRUBIN / TOTAL PROTEIN / URIC ACID: tissue Plasma
[1] = 0 mg/kg, 72 h, dose level Control, time 3 day
[2] = 0 mg/kg, 120 h, dose level Control, time 5 day
[3] = 56 mg/kg, 72 h, dose level Low, time 3 day

Compound: CC[C@H]1OC(=O)[C@H](C)[C@@H](O[C@H]2C[C@@](C)(OC)[C@@H](O)[C@H](C)O2)[C@H](C)[C@@H](O[C@@H]2O[C@H](C)C[C@H](N(C)C)[C@H]2O)[C@](C)(OC)C[C@@H](C)C(=O)[C@H](C)[C@@H](O)[C@]1(C)O [CLARITHROMYCIN]
- ABSOLUTE BASOPHIL [1]: 0 CELLS/uL
- ABSOLUTE EOSINOPHIL [1]: 91.5 CELLS/uL
- ABSOLUTE LYMPHOCYTE [1]: 14108.83 CELLS/uL
- ABSOLUTE MONOCYTE [1]: 81 CELLS/uL
- ABSOLUTE SEGMENTED NEUTROPHIL [1]: 818.67 CELLS/uL
- BASOPHIL [1]: 0%
- EOSINOPHIL [1]: 0.67%
- ERYTHROCYTE COUNT [1]: 5.56 x10E6/uL
- HEMATOCRIT [1]: 34.5%
- HEMOGLOBIN [1]: 13.45 G/DL
- LEUKOCYTE COUNT [1]: 15.1 x10E3/uL
- LYMPHOCYTE [1]: 93%
- MEAN CORPUSCULAR HEMOGLOBIN [1]: 24.2 pg
- MEAN CORPUSCULAR HEMOGLOBIN CONCENTRATION [1]: 38.98 G/DL
- MEAN CORPUSCULAR VOLUME [1]: 62.07 fL
- MONOCYTE [1]: 0.5%
- NEUTROPHIL [1]: 5.83%
- NUCLEATED RED BLOOD CELLS [1]: 0 /100WBC
- PLATELET COUNT [1]: 1193.33 x10E3/uL
- ALANINE AMINOTRANSFERASE [1]: 60.33 u/L
- ALBUMIN [1]: 4 G/DL
- ALKALINE PHOSPHATASE [1]: 334.83 u/L
- ASPARTATE AMINOTRANSFERASE [1]: 74.5 u/L
- BLOOD UREA NITROGEN [1]: 13.5 mg/dL
- CARBON DIOXIDE [1]: 30.33 mmol/L
- CHLORIDE [1]: 98.33 MEQ/L
- CHOLESTEROL [1]: 71.17 mg/dL
- CREATINE PHOSPHOKINASE [1]: 212 u/L
- CREATININE [1]: 0.21 mg/dL
- GLUCOSE [1]: 173.17 mg/dL
- LACTATE DEHYDROGENASE [1]: 101.5 u/L
- LIPASE [1]: 24.17 u/L
- PHOSPHORUS [1]: 10.87 mg/dL
- POTASSIUM [1]: 6.06 MEQ/L
- SODIUM [1]: 140.58 MEQ/L
- TOTAL BILIRUBIN [1]: 0.17 mg/dL
- TOTAL PROTEIN [1]: 5.9 G/DL
- URIC ACID [1]: 1.23 mg/dL
- ABSOLUTE BASOPHIL [2]: 0 CELLS/uL
- ABSOLUTE EOSINOPHIL [2]: 34.5 CELLS/uL
- ABSOLUTE LYMPHOCYTE [2]: 8181 CELLS/uL
- ABSOLUTE MONOCYTE [2]: 82.67 CELLS/uL
- ABSOLUTE SEGMENTED NEUTROPHIL [2]: 435.17 CELLS/uL
- BASOPHIL [2]: 0%
- EOSINOPHIL [2]: 0.5%
- ERYTHROCYTE COUNT [2]: 5.31 x10E6/uL
- HEMATOCRIT [2]: 33.83%
- HEMOGLOBIN [2]: 13.37 G/DL
- LEUKOCYTE COUNT [2]: 8.73 x10E3/uL
- LYMPHOCYTE [2]: 93.5%
- MEAN CORPUSCULAR HEMOGLOBIN [2]: 25.2 pg
- MEAN CORPUSCULAR HEMOGLOBIN CONCENTRATION [2]: 39.53 G/DL
- MEAN CORPUSCULAR VOLUME [2]: 63.73 fL
- MONOCYTE [2]: 1%
- NEUTROPHIL [2]: 5%
- NUCLEATED RED BLOOD CELLS [2]: 0 /100WBC
- PLATELET COUNT [2]: 1057.33 x10E3/uL
- ALANINE AMINOTRANSFERASE [2]: 54.33 u/L
- ALBUMIN [2]: 4.07 G/DL
- ALKALINE PHOSPHATASE [2]: 308.67 u/L
- ASPARTATE AMINOTRANSFERASE [2]: 83.17 u/L
- BLOOD UREA NITROGEN [2]: 14 mg/dL
- CARBON DIOXIDE [2]: 34 mmol/L
- CHLORIDE [2]: 98 MEQ/L
- CHOLESTEROL [2]: 71.33 mg/dL
- CREATINE PHOSPHOKINASE [2]: 266.5 u/L
- CREATININE [2]: 0.27 mg/dL
- GLUCOSE [2]: 133 mg/dL
- LACTATE DEHYDROGENASE [2]: 127 u/L
- LIPASE [2]: 11.67 u/L
- PHOSPHORUS [2]: 10.6 mg/dL
- POTASSIUM [2]: 6.17 MEQ/L
- SODIUM [2]: 142.68 MEQ/L
- TOTAL BILIRUBIN [2]: 0.15 mg/dL
- TOTAL PROTEIN [2]: 6.03 G/DL
- URIC ACID [2]: 0.75 mg/dL
- ABSOLUTE BASOPHIL [3]: 0 CELLS/uL
- ABSOLUTE EOSINOPHIL [3]: 59.33 CELLS/uL
- ABSOLUTE LYMPHOCYTE [3]: 13806.33 CELLS/uL
- ABSOLUTE MONOCYTE [3]: 0 CELLS/uL
- ABSOLUTE SEGMENTED NEUTROPHIL [3]: 1301 CELLS/uL
- BASOPHIL [3]: 0%
- EOSINOPHIL [3]: 0.33%
- ERYTHROCYTE COUNT [3]: 5.56 x10E6/uL
- HEMATOCRIT [3]: 35.47%
- HEMOGLOBIN [3]: 13.53 G/DL
- LEUKOCYTE COUNT [3]: 15.17 x10E3/uL
- LYMPHOCYTE [3]: 91.67%
- MEAN CORPUSCULAR HEMOGLOBIN [3]: 24.37 pg
- MEAN CORPUSCULAR HEMOGLOBIN CONCENTRATION [3]: 38.2 G/DL
- MEAN CORPUSCULAR VOLUME [3]: 63.77 fL
- MONOCYTE [3]: 0%
- NEUTROPHIL [3]: 8%
- NUCLEATED RED BLOOD CELLS [3]: 0 /100WBC
- PLATELET COUNT [3]: 1156.33 x10E3/uL
- ALANINE AMINOTRANSFERASE [3]: 46.33 u/L
- ALBUMIN [3]: 4.03 G/DL
- ALKALINE PHOSPHATASE [3]: 259.67 u/L
- ASPARTATE AMINOTRANSFERASE [3]: 70.67 u/L
- BLOOD UREA NITROGEN [3]: 12.33 mg/dL
- CARBON DIOXIDE [3]: 30.33 mmol/L
- CHLORIDE [3]: 99.67 MEQ/L
- CHOLESTEROL [3]: 68.33 mg/dL
- CREATINE PHOSPHOKINASE [3]: 185.33 u/L
- CREATININE [3]: 0.19 mg/dL
- GLUCOSE [3]: 143.67 mg/dL
- LACTATE DEHYDROGENASE [3]: 137.33 u/L
- LIPASE [3]: 10.67 u/L
- PHOSPHORUS [3]: 10.87 mg/dL
- POTASSIUM [3]: 6.51 MEQ/L
- SODIUM [3]: 141.97 MEQ/L
- TOTAL BILIRUBIN [3]: 0.2 mg/dL
- TOTAL PROTEIN [3]: 5.93 G/DL
- URIC ACID [3]: 1.4 mg/dL
